Source: patent US9169217B2, “Arylalkyl esters of 4-amino-6-(substituted phenyl)-picolinates and 6-amino-2-(substituted phenyl)-pyrimidinecarboxylates and their use as selective herbicides for crops” (Dow AgroSciences LLC, priority 2011, dated 2015)

How the values were obtained:
Type in all cases: in vivo
[1] = tested on: Salsola kali (Thistle, Russian); experiment: Postemergence herbicidal activity in cereal crops (Example 14); settings: wheat cropping systems, postemergence spray, 35 g ae/ha, 21 DAA
Description: (§1) Seeds of the desired test plant species were planted in Sun Gro Metro-Mix® 360 planting mixture, which typically has a pH of 6.0 to 6.8 and an organic matter content of about 30 percent, in plastic pots with a surface area of 84.6 cm^2. When required to ensure good germination and healthy plants, a fungicide treatment and/or other chemical or physical treatment was applied. The plants were grown for 7-36 d in a greenhouse with an approximate 14 h photoperiod which was maintained at about 18° C. during the day and 17° C. during the night. Nutrients and water were added on a regular basis and supplemental lighting was provided with overhead metal halide 1000-Watt lamps as necessary. The plants were employed for testing when they reached the second or third true leaf stage.
(§2) Treatments consisted of esters of compounds 33, 34, 39, 40 and 42 and B, F, G and H. Compound B is methyl 4-amino-3-chloro-6-(4-cyclopropylphenyl)-5-fluoropicolinate; compound F is methyl 6-amino-2-(4-chloro-2-fluoro-3-methoxyphenyl)-5-methoxypyrimidine-4-carboxylate; compound G is methyl 4-amino-3-chloro-6-(4-chloro-2-fluoro-3-methoxyphenyl)picolinate; and compound H is methyl 4-amino-3-chloro-6-(4-chloro-2-fluoro-3-(1-fluoroethyl)phenyl)-5-fluoropicolinate. A weighed amount, determined by the highest rate to be tested, of each test compound was placed in a 25 mL glass vial and was dissolved in 8 mL of a 97:3 v/v mixture of acetone and DMSO to obtain concentrated stock solutions. […] The concentrated stock solutions obtained were diluted with 16 mL of an aqueous mixture containing acetone, water, isopropyl alcohol, DMSO, Agri-dex crop oil concentrate, and Triton® X-77 surfactant in a 64.7:26.0:6.7:2.0:0.7:0.01 v/v ratio to obtain spray solutions containing the highest application rates. Additional application rates were obtained by serial dilution of 12 mL of the high rate solution into a solution containing 4 mL of a 97:3 v/v mixture of acetone and DMSO and 8 mL of an aqueous mixture containing acetone, water, isopropyl alcohol, DMSO, Agri-dex crop oil concentrate, and Triton® X-77 surfactant in a 48.5:39.0:10.0:1.5:1.0:0.02 v/v ratio to obtain ½×, ¼×, ⅛× and 1/16× rates of the high rate. Compound requirements are based upon a 12 mL application volume at a rate of 187 L/ha. Formulated compounds were applied to the plant material with an overhead Mandel track sprayer equipped with 8002E nozzles calibrated to deliver 187 L/ha over an application area of 0.503 m^2 at a spray height of 18 inches (43 cm) above average plant canopy height. Control plants were sprayed in the same manner with the blank.
(§3) The treated plants and control plants were placed in a greenhouse as described above and watered by sub-irrigation to prevent wash-off of the test compounds. After 20-22 d, the condition of the test plants as compared with that of the untreated plants was determined visually and scored on a scale of 0 to 100 percent where 0 corresponds to no injury and 100 corresponds to complete kill.

[2] = tested on: Cirsium arvense (Thistle, Canada); experiment: as above; settings: wheat cropping systems, postemergence spray, 21 DAA
Description: as §1, §2, §3

[3] = tested on: Cyperus rotundus L. (purple nutsedge); experiment: In-water applied herbicidal activity in transplanted paddy rice (Example 17); settings: rice cropping systems, 35 g ae/ha, 21 DAA, may represent multiple trials
How it was run: (§4)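 Ester forms of test compounds, in acetone diluted with aqueous Agri-dex (final 1.25% v/v crop oil concentrate), were injected into the flood water of paddy pots holding weeds or rice at the 2nd–3rd leaf stage in mud (pH ~7.3–7.8). Visual injury versus untreated plants was scored 0–100% after 3 weeks in greenhouse (~29/26 °C). GR50/GR80 were derived by probit analysis.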

[4] = tested on: Leptochloa chinensis (L.) NEES (Chinese sprangletop); experiment: as above; settings: LEFCH, probit analysis; for GR50: 50% growth reduction; for GR80: 80% growth reduction; for GR90: 90% growth reduction
How it was run: as §4

Row | SMILES | Visual Injury (%) SASKR [1] [%] | Visual Injury (%) CIRAR ([2]; 8.75 g ae/ha) [%] | Visual Injury (%) CIRAR ([2]; 17.5 g ae/ha) [%] | Visual Injury (%) CYPRO [3] [%] | GR50 [4] [g ae/ha] | GR80 [4] [g ae/ha] | GR90 [4] [g ae/ha]
1 | COC(=O)c1nc(-c2ccc(Cl)c(OC)c2F)cc(N)c1Cl [Compound G, methyl 4-amino-3-chloro-6-(4-chloro-2-fluoro-3-methoxyphenyl)picolinate, reference compound] | 80 | 70 | 80 | 47 | – | – | –
2 | COC(=O)c1nc(-c2ccc(Cl)c(OC)c2F)c(F)c(N)c1Cl [E, methyl 4-amino-3-chloro-6-(4-chloro-2-fluoro-3-methoxyphenyl)-5-fluoropicolinate, reference compound] | – | – | – | – | 59.9 | 99.4 | 130.0
3 | COc1c(Cl)ccc(-c2cc(N)c(Cl)c(C(=O)OCc3ccccc3)n2)c1F [Compound 39] | 90 | 90 | 95 | 80 | – | – | –
4 | COc1c(Cl)ccc(-c2nc(C(=O)OCc3ccccc3)c(Cl)c(N)c2F)c1F [Compound 1, benzyl 4-amino-3-chloro-6-(4-chloro-2-fluoro-3-methoxyphenyl)-5-fluoropicolinate] | – | – | – | – | 50.4 | 78.6 | 99.1
